Test results taken from PMC12677633, “Thermosensory TRPV Heterotetramers Drive Seasonal Polyphenism: Molecular Basis of CcIav/CcNan‐PKCα‐AKH/AKHR Signaling in Pear Psyllid Morph Transition” (Advanced Science, 2025).

Columns and labels:
Assay in all cases: Fluo-4 AM calcium flux in HEK293T cells
[1] = tested on: T1, CcIav/CcNan heterotetramer; format: cell-based, Cacopsylla chinensis; settings: agonist; 2:2 CcIav/CcNan
T1 construct: gene iav; full-length ORFs co-expressed in HEK293T cells from pcDNA3.1-mCherry-P2A; 2:2 heterotetramer

[2] = tested on: T2, DcIav/DcNan heterotetramer; format: cell-based, Diaphorina citri; settings: agonist; 2:2 molar ratio Iav/Nan
T2 construct: gene iav; ORFs co-expressed in HEK293T cells; 2:2 heterotetramer

[3] = tested on: T3, HaIav/HaNan heterotetramer; format: cell-based, Harmonia axyridis; settings: agonist; 2:2 molar ratio Iav/Nan
T3 construct: gene iav; ORFs co-expressed in HEK293T cells; 2:2 heterotetramer

[4] = molecular target: T4, BdIav/BdNan heterotetramer (Bactrocera dorsalis, UniProt A0A8N4L2W2+A0ABM3JT49); format: cell-based
T4 construct: gene LOC105228865; ORFs co-expressed in HEK293T cells; 2:2 heterotetramer
T4 sequence (A0ABM3JT49 1-1159): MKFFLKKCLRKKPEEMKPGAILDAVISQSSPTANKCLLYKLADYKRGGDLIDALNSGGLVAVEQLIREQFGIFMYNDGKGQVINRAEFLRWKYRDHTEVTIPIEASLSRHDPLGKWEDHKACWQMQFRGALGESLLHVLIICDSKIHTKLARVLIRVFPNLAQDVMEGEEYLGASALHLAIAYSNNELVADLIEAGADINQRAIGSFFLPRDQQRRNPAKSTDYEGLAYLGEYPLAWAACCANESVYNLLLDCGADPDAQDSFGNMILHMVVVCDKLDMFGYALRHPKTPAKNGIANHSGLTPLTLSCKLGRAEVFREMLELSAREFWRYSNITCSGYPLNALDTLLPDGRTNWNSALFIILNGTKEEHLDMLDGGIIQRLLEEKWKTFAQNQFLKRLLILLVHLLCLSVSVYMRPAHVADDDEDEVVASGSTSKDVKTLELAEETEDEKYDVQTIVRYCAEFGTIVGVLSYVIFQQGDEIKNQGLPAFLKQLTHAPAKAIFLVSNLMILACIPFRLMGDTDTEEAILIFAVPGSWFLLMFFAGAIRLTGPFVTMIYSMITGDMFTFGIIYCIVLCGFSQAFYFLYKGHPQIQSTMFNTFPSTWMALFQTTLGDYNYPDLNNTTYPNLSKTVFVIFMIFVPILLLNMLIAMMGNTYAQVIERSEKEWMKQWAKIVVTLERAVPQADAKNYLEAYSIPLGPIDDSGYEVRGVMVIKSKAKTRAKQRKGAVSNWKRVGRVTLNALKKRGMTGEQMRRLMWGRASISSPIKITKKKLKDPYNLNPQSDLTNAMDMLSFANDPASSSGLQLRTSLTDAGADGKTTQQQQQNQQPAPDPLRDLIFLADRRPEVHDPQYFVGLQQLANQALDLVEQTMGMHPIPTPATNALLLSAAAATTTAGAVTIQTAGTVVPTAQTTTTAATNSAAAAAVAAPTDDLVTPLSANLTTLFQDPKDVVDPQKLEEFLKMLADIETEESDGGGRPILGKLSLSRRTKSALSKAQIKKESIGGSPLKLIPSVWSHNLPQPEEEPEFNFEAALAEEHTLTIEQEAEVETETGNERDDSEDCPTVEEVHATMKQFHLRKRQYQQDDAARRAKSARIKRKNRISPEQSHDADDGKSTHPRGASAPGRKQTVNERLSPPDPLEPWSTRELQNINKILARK
T4 sequence (A0A8N4L2W2 1-846): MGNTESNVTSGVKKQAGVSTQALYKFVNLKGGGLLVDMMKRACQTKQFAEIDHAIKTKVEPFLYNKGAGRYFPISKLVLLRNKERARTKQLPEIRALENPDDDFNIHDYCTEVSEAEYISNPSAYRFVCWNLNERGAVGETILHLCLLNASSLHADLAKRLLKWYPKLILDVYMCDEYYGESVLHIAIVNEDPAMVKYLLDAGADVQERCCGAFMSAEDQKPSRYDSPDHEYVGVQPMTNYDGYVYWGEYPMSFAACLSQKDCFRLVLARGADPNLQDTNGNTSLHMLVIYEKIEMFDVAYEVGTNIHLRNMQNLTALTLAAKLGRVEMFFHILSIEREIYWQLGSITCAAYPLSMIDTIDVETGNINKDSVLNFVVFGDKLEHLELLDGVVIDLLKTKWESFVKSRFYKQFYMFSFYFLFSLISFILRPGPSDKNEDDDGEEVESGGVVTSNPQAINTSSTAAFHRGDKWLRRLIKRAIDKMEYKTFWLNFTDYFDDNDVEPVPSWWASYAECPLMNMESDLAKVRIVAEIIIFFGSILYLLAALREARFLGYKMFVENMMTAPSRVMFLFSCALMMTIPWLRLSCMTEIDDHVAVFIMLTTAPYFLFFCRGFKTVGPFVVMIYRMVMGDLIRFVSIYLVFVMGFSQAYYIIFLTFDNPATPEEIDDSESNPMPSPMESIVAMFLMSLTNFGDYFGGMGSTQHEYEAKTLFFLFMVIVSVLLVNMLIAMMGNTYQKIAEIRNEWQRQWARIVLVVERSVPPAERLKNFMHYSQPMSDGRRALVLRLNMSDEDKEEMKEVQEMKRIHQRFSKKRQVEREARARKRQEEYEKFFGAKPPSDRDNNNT

COc1cc(CNC(=O)CCCC/C=C/C(C)C)ccc1O [capsaicin]
EC50 [1]: 0.0224 µM
EC50 [2]: 57.8 µM
EC50 [3]: 24.1 µM
EC50 [4]: 24.5 µM
